Patent US10189854B2, “Substituted pyrimidine compounds” (Grünenthal GmbH, priority 2014, dated 2019)
Where a name gives a salt, the structure may show the parent alone.

Molecular target: human PDE4B1 (Homo sapiens (Human), UniProt Q07343)
Assay: TR-FRET assay using the LANCE Ultra cAMP kit to determine the activity of hPDE4B1
Format: biochemical
Settings: IC50 inhibition of PDE4B, mean
Method in brief: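 Recombinant human PDE4B1 (Sf9-expressed, 0.96 U) incubated with compound and 500 nM cAMP in 50 mM Tris-HCl, 50 mM MgCl2, 5 mM DTT, pH 8.5, 30 min at room temperature. Residual cAMP read by TR-FRET (665/620 nm ratio) after IBMX stop. IC50 from ten-concentration curves as % inhibition of control.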

Chain of human PDE4B1 (Q07343 whole entry): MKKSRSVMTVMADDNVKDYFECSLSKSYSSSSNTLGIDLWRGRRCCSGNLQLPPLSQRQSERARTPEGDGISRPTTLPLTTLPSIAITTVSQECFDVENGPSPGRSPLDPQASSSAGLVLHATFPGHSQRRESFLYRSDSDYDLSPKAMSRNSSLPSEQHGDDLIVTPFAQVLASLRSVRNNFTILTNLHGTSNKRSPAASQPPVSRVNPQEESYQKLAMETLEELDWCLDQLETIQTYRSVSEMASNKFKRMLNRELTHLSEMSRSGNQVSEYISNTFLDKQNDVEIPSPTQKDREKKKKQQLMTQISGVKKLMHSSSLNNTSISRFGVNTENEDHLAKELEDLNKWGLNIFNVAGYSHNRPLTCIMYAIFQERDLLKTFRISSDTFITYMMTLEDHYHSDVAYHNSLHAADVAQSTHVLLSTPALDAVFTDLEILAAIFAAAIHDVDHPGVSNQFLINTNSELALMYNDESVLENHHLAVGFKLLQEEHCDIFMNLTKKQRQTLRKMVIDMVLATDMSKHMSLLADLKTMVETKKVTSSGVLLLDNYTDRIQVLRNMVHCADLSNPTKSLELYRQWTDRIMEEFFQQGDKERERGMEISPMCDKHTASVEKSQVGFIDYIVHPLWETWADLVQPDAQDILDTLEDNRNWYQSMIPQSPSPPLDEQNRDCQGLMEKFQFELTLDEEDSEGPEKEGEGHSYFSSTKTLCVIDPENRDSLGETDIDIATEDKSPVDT

Row | IC50 [µM] | SMILES
1 | < 0.1 | COc1cc(OC)nc(-c2cnc(N3CC4(CC4)c4ccc(C(=O)N(C)CCO)cc43)nc2)c1 [Compound 328, 1-[5-(4,6-Dimethoxy-pyridin-2-yl)-pyrimidin-2-yl]-N-(2-hydroxy-ethyl)-N-methyl-spiro[1,2-dihydro-indole-3,1′-cyclopropane]-6-carboxylic acid amide]
2 | 0.1 to 1 | O=C(c1ccc2c(c1)N(c1ncc(-c3ccccc3F)cn1)CC21CC1)N1CCC2(CCCN2)C1 (stereo not shown) [Compound 226, (1,-Diazaspiro[4.4]nonan-7-yl)-[1-[5-(2-fluorophenyl)-pyrimidin-2-yl]-spiro[1,2-dihydro-indole-3,1′-cyclopropane]-6-yl]-methanone]
3 | < 0.1 | CN(CCO)C(=O)c1ccc2c(c1)N(c1ncc(-c3csc(C(N)=O)n3)cn1)CC21CC1 [Compound 327, 4-[2-[6-[(2-Hydroxy-ethyl)-methyl-carbamoyl]-spiro[1,2-dihydro-indole-3,1′-cyclopropane]-1-yl]-pyrimidin-5-yl]-thiazole-2-carboxylic acid amide]
4 | < 0.1 | CCc1ccnc(-c2cnc(N3CC4(CC4)c4ccc(C(=O)N5CCNC(=O)C5)cc43)nc2)c1 [Compound 243, 4-[1-[5-(4-Ethyl-pyridin-2-yl)-pyrimidin-2-yl]-spiro[1,2-dihydro-indole-3,1′-cyclopropane]-6-carbonyl]-piperazin-2-one]
5 | < 0.1 | Nc1ccnc(-c2cnc(N3CC4(CC4)c4ccc(C(=O)N5C[C@H]6C[C@@H]5CN6)cc43)nc2)c1 [Compound 356, [1-[5-(4-Amino-pyridin-2-yl)-pyrimidin-2-yl]-spiro[1,2-dihydro-indole-3,1′-cylcopropane]-6-yl]-[(1R,4R)-2,5-diazabicyclo[2.2.1]heptan-2-yl]-methanone]
6 | < 0.1 | N[C@@H]1CCN(C(=O)c2ccc3c(c2)N(c2ncc(-c4cc(C5CC5)ccn4)cn2)CC32CC2)C1 [Compound 335, (R)-(3-aminopyrrolidin-1-yl)(1′-(5-(4-cyclopropylpyridin-2-yl)pyrimidin-2-yl)spiro[cyclopropane-1,3′-indolin]-6′-yl)methanone]
7 | < 0.1 | CC(=O)Oc1cccc(-c2cnc(N3CC4(CC4)c4ccc(C(=O)N(C)CCO)cc43)nc2)c1 [Compound 358, Acetic acid [3-[2-[6-[(2-hydroxy-ethyl)-methyl-carbamoyl]-spiro[1,2-dihydro-indole-3,1′-cyclopropane]-1-yl]-pyrimidin-5-yl]-phenyl]ester]
8 | < 0.1 | CN(CCO)C(=O)c1ccc2c(c1)N(c1ncc(-c3cc(NCC4CC4)ccn3)cn1)CC21CC1 [Compound 319, 1-[5-[4-(Cyclopropyl-methylamino)-pyridin-2-yl]-pyrimidin-2-yl]-N-(2-hydroxy-ethyl)-N-methyl-spiro[1,2-dihydro-indole-3,1′-cyclopropane]-6-carboxylic acid amide]
9 | 0.1 to 1 | O=C(O)CN1CCN(C(=O)c2ccc3c(c2)N(c2ncc(-c4ccccc4F)cn2)CC32CC2)CC1 [Compound 237, 2-[4-[1-[5-(2-Fluorophenyl)-pyrimidin-2-yl]-spiro[1,2-dihydro-indole-3,1′-cyclopropane]-6-carbonyl]-pieprazin-1-yl]-acetic acid]
10 | < 0.1 | CN(CCO)C(=O)c1ccc2c(c1)N(c1ncc(-c3cc(NCC4CC4)ccc3F)cn1)CC21CC1 [Compound 333, 1-[5-[5-(Cyclopropyl-methylamino)-2-fluoro-phenyl]-pyrimidin-2-yl]-N-(2-hydroxy-ethyl)-N-methyl-spiro[1,2-dihydro-indole-3,1′-cyclopropane]-6-carboxylic acid amide]
11 | < 0.1 | CN(CCO)C(=O)c1ccc2c(c1)N(c1ncc(-c3csc(CO)n3)cn1)CC21CC1 [Compound 326, N-(2-Hydroxy-ethyl)-1-[5-[2-(hydroxymethyl)-thiazol-4-yl]-pyrimidin-2-yl]-N-methyl-spiro[1,2-dihydro-indole-3,1′-cyclopropane]-6-carboxylic acid amide]
12 | < 0.1 | CN(CC(N)=O)C(=O)c1ccc2c(c1)N(c1ncc(-c3cc(C4CC4)ccn3)cn1)CC21CC1 [Compound 337, N-(Carbamoyl-methyl)-1-[5-(4-cyclopropyl-pyridin-2-yl)-pyrimidin-2-yl]-N-methyl-spiro[1,2-dihydro-indole-3,1′-cyclopropane]-6-carboxylic acid amide]
13 | < 0.1 | CCc1ccnc(-c2cnc(N3CC4(CC4)c4ccc(C(=O)N5CCCC5)cc43)nc2)c1 [Compound 275, [1-[5-(4-Ethyl-pyridin-2-yl)-pyrimidin-2-yl]-spiro[1,2-dihydro-indole-3,1′-cyclopropane]-6-yl]-pyrrolidin-1-yl-methanone]
14 | < 0.1 | C[S+]([O-])c1ccc(F)c(-c2cnc(N3CC4(CC4)c4ccc(C(=O)N5CCOCC5)cc43)nc2)c1 (stereo not shown) [Compound 355, [1-[5-[2-Fluoro-5-(methylsulfinyl)-phenyl]-pyrimidin-2-yl]-spiro[1,2-dihydro-indole-3,1′-cyclopropane]-6-yl]-morpholin-4-yl-methanone]
15 | < 0.1 | CN(CC(N)=O)C(=O)c1ccc2c(c1)N(c1ncc(-c3ccccn3)cn1)CC21CC1 [Compound 320, N-(2-amino-2-oxoethyl)-N-methyl-1′-(5-(pyridin-2-yl)pyrimidin-2-yl)spiro[cyclopropane-1,3′-indoline]-6′-carboxamide]
16 | < 0.1 | CCc1cccc(-c2cnc(N3CC4(CC4)c4ccc(C(=O)N(C)CCO)cc43)nc2)n1 [Compound 268, 1-[5-(6-Ethyl-pyridin-2-yl)-pyrimidin-2-yl]-N-(2-hydroxy-ethyl)-N-methyl-spiro[1,2-dihydro-indole-3,1′-cyclopropane]-6-carboxylic acid amide]
17 | < 0.1 | C[C@@H](O)CN1CCN(C(=O)c2ccc3c(c2)N(c2ncc(-c4ccccc4F)cn2)CC32CC2)CC1 [Compound 239, [1-[5-(2-Fluorophenyl)-pyrimidin-2-yl]-spiro[1,2-dihydro-indole-3,1′-cyclopropane]-6-yl]-[4-[(2R)-2-hydroxy-propyl]-piperazin-1-yl]-methanone]
18 | < 0.1 | CN(CCO)C(=O)c1ccc2c(c1)N(c1ncc(-c3cccc(C[S+](C)[O-])c3)cn1)CC21CC1 (stereo not shown) [Compound 342, N-(2-Hydroxy-ethyl)-N-methyl-1-[5-[3-[(methylsulfinyl)-methyl]-phenyl]-pyrimidin-2-yl]-spiro[1,2-dihydro-indole-3,1′-cyclopropane]-6-carboxylic acid amide]
19 | < 0.1 | Cc1cccc(-c2cnc(N3CC4(CC4)c4ccc(C(=O)N(C)CC(N)=O)cc43)nc2)n1 [Compound 307, N-(Carbamoyl-methyl)-N-methyl-1-[5-(6-methyl-pyridin-2-yl)-pyrimidin-2-yl]-spiro[1,2-dihydro-indole-3,1′-cyclopropane]-6-carboxylic acid amide]
20 | < 0.1 | O=C(c1ccc2c(c1)N(c1ncc(-c3cccnn3)cn1)CC21CC1)N1CC2CC1CN2 (stereo not shown) [Compound 274, (2,5-Diazabicyclo[2.2.1]heptan-2-yl)-[1-(5-pyridazin-3-yl-pyrimidin-2-yl)-spiro[1,2-dihydro-indole-3,1′-cyclopropane]-6-yl]-methanone hydrochloride]
21 | < 0.1 | CN(CCO)C(=O)c1ccc2c(c1)N(c1ncc(-c3cccc(O)n3)cn1)CC21CC1 [Compound 280, N-(2-Hydroxy-ethyl)-1-[5-(6-hydroxy-pyridin-2-yl)-pyrimidin-2-yl]-N-methyl-spiro[1,2-dihydro-indole-3,1′-cyclopropane]-6-carboxylic acid amide]
22 | < 0.1 | CN(CCO)C(=O)c1ccc2c(c1)N(c1ncc(-c3nc(CO)cs3)cn1)CC21CC1 [Compound 357, N-(2-Hydorxy-ethyl)-1-[5-[4-(hydroxymethyl)-thiazol-2-yl]-pyrimidin-2-yl]-N-methyl-spiro[1,2-dihydro-indole-3,1′-cyclopropane]-6-carboxylic acid amide]
23 | < 0.1 | CC(=O)Nc1ccnc(-c2cnc(N3CC4(CC4)c4ccc(C(=O)N(C)CCO)cc43)nc2)c1 [Compound 252, 1-[5-(4-Acetylamino-pyridin-2-yl)-pyrimidin-2-yl]-N-(2-hydroxy-ethyl)-N-methyl-spiro[1,2-dihydro-indole-3,1′-cyclopropane]-6-carboxylic acid amide]
24 | < 0.1 | CC(C)(O)c1ccnc(-c2cnc(N3CC4(CC4)c4ccc(C(=O)N5CCOCC5)cc43)nc2)c1 [Compound 294, [1-[5-[4-(1-Hydroxy-1-methyl-ethyl)-pyridin-2-yl]-pyrimidin-2-yl]-spiro[1,2-dihydro-indole-3,1′-cyclopropane]-6-yl]-morpholin-4-yl-methanone]
25 | < 0.1 | CC(=O)Nc1ccnc(-c2cnc(N3CC4(CC4)c4ccc(C(=O)N5CCOCC5)cc43)nc2)c1 [Compound 346, N-[2-[2-[6-(Morpholine-4-carbonyl)-spiro[1,2-dihydro-indole-3,1′-cyclopropane]-1-yl]-pyrimidin-5-yl]-pyridin-4-yl]-acetamide]
26 | < 0.1 | CN(CCO)C(=O)c1ccc2c(c1)N(c1ncc(-c3cc(C4CC4)ccn3)cn1)CC21CC1 [Compound 254, 1-[5-(4-Cyclopropyl-pyridin-2-yl)-pyrimidin-2-yl]-N-(2-hydroxy-ethyl)-N-methyl-spiro[1,2-dihydro-indole-3,1′-cyclopropane]-6-carboxylic acid amide]
27 | < 0.1 | O=C(c1ccc2c(c1)N(c1ncc(-c3ccccc3F)cn1)CC21CC1)N1CCC[C@H](CO)C1 [Compound 317, [1-[5-(2-Fluorophenyl)-pyrimidin-2-yl]-spiro[1,2-dihydro-indole-3,1′-cyclopropane]-6-yl]-[(3S)-3-(hydroxymethyl)-piperidin-1-yl]-methanone]
28 | < 0.1 | CN(CCO)C(=O)c1ccc2c(c1)N(c1ncc(-c3cc(C(N)=O)cs3)cn1)CC21CC1 [Compound 348, 1-[5-(4-Carbamoyl-thiophen-2-yl)-pyrimidin-2-yl]-N-(2-hydroxy-ethyl)-N-methyl-spiro[1,2-dihydro-indole-3,1′-cyclopropane]-6-carboxylic acid amide]
